Test results: publication PMC10424187, “Structure-Guided Design and Synthesis of a Pyridazinone Series of Trypanosoma cruzi Proteasome Inhibitors” (Journal of Medicinal Chemistry, 2023)
≈ marks a conversion by molar mass, not a printed value. Where “and” joins values, the source holds several entries; their conditions need not be identical. Equal entries are not always repeated. Values belong to the compound of their own block, whether it stands above or below them.

Experiments:
T. cruzi [1] = assay: T. cruzi in vitro washout assay; assay type: cell-based, Trypanosoma cruzi; conditions: for relapses, days post washout: 16-day treatment at 25-fold EC50, two replicates each
Source text: T. cruzi in vitro washout assay
This assay was run as previously reported:
Marco M.; Miles T.J.; Naylor C.; Osuna-Cabello M.; Paterson C.; Read K.D.; Pinto E.G.; Riley
J.; Scullion P.; Shishikura Y.; Simeons F.; Stojanovski L.; Svensen N.; Thomas J.; Wyatt P.G.;
disubstituted piperazines for the treatment of Chagas disease. […]

T. cruzi [2] = assay: Chronic mouse efficacy model of Chagas disease; assay type: in vivo, Balb/c mice
Description: All regulated procedures on living animals were carried out under the authority of a project license issued by the Home Office under the Animals (Scientific Procedures) Act 1986, as amended in 2012 (and in compliance with EU Directive EU/2010/63). Infected animals had access to food and water ad libitum and were housed under a 12-hour light/dark photoperiod.
Animals used in these experiments were female NMRI and Balb/c mice (Harlan, UK). […]
In vivo Mouse Efficacy Studies.
The T. cruzi chronic efficacy study was run in Balb/c mice as previously described:
M.D. Lewis, A. Fortes Francisco, M.C. Taylor, J.M. Kelly, A new experimental model for assessing drug efficacy against Trypanosoma cruzi infection based on highly sensitive in vivo imaging, J. Biomol. Screen 20 (1) (2015) 36–43

ChromLogD = assay type: physicochemical; conditions: pH 7.4; read-out: Chrom LogDpH7.4
Description: Chrom LogD was measured as previously described:
solubility and hydrophobicity. Drug Discov. Today 2010, 15, 648−655. […]

T. cruzi proteasome = T. cruzi proteasome (Trypanosoma cruzi, UniProt V5BU39+V5C017); assay: T. cruzi proteasome assay (chymotrypsin-like activity, Suc-LLVY-Rho-110-DPro); conditions: for Tc Prot Hill Slope / Tc Prot Max Response (%): individual replicate; for Emax: read-out: Tc Prot Max Response (%), individual replicate
Chain of T. cruzi proteasome (V5BU39 entry or part of it): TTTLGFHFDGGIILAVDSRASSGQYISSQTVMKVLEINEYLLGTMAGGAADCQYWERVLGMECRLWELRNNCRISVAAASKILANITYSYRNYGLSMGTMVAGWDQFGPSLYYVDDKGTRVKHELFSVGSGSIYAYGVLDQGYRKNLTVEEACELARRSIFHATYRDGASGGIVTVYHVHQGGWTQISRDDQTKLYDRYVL
Chain of T. cruzi proteasome (V5C017 entry or part of it): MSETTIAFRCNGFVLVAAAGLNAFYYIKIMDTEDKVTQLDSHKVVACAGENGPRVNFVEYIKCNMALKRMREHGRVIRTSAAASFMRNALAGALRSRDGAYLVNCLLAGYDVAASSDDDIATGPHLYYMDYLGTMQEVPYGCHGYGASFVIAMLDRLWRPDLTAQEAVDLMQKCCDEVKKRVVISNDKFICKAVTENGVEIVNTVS
Description: T. cruzi and human proteasome assays
(§2) The T. cruzi proteasome was partially purified as described in the above reference and Human
(§3) 20S proteasome was purchased from Boston Biochem (now R&D Systems, catalogue number
(§4) a Tecan Fluent to titrate over 11 points in Labcyte Echo-compatible Greiner Bio-One 384 well
(§5) polypropylene microplates. Subsequently, 100 nl of test compound titrations were transferred
(§6) to black Greiner Bio-One low volume 384 well microplates using a Labcyte Echo acoustic
(§7) 50 mM HEPES pH 7.5, 150 mM sodium chloride, 5% Glycerol, 1 mM dithiothreitol, 1 mM
(§8) CHAPS in deionised, filtered water (all chemicals purchased from Sigma Aldrich). Human 20S
(§9) These enzyme solutions were prepared immediately prior to assay initiation and stored at 4 °C
(§10) To monitor the Chymotrypsin-like activity of the T. cruzi and Human 20S proteasome proteins
(§11) a self-quenched, Rhodamine 110-labelled peptide with the sequence Suc-LLVY-Rho-110-
(§12) DPro was used (prepared by Cambridge Research Biochemicals. Suc is succinyl, while DPro
(§13) refers to ᴅ-proline). The peptide was initially prepared from solid as a 10 mM solution in 100%
(§14) DMSO and stored at -20 °C. Prior to use in the assay, an aliquot was thawed at room
(§15) to twofold Km. For use with the Human 20S proteasome, the Suc-LLVY-Rho-110-DPro
(§16) peptide was diluted in assay buffer to a concentration equivalent to twofold Km, which for this
(§17) enzyme was 2 μM. The peptide solutions were protected from light and stored at 4 °C before
(§18) A Multidrop Micro (Thermo Fisher), using a low volume dispense cassette, was used to add
(§19) the assay solutions to the test compounds in the low volume 384-well microplates. Prior to
(§20) addition of proteasome solution, 5 μl of assay buffer was added to one column (containing 100
(§21) nl, 100% DMSO) to act as no enzyme control to mimic full inhibition. Subsequently, 5 μl of
(§22) proteasome solution (either T. cruzi or Human 20S) was added to all wells on the test
(§23) microplate apart from the column containing 5 μl assay buffer. The microplate was then spun
(§24) using a suitable bench top centrifuge for 1 minute at 1000 rpm, before incubation at room
(§25) Following the initial incubation, 5 μl of substrate solution was then added to all wells on the
(§26) test microplate using a Multidrop Micro equipped with a discrete low volume dispense cassette.
(§27) The test microplates were then spun for 10 seconds at 1000 rpm before being rapidly moved to
(§28) a multi-mode microplate reader, capable of monitoring fluorescence intensity. The microplate
(§29) reader used for these studies was a Tecan M1000 Pro, equipped with quad monochromators.
(§30) 530 ± 5 nm. A series of fluorescence intensity measurements were taken every 30 seconds for
(§31) Subsequently, the fluorescence intensity measurements (relative fluorescence units, RFU) were
(§32) fit to a simple linear regression model (y = A + Bx, where y refers to the fluorescence intensity
(§33) and x refers to the time in seconds) to determine the initial rate of reaction. The initial rate for
(§34) every compound concentration tested was then fit a 4-parameter logistic model: y = (A + (B -
(§35) A)) / (1 + (x / C)D), where y refers to the assay response, x refers to the inhibitor concentration,
(§36) A and B are the range values (minimum and maximum, respectively), C is the IC50 value and
(§37) D is the slope. Potency values were then reported as pIC50, which is the negative log of the
(§38) IC50 (on a molar scale). Data analysis was automated and carried out using the ActivityBase

Human 20S proteasome = Human 20S proteasome (Homo sapiens, UniProt P28074+P49721); assay: human proteasome assay (chymotrypsin-like activity, Suc-LLVY-Rho-110-DPro); conditions: for Emax: read-out: Hs Prot Max Response (%), individual replicate
Description: T. cruzi and human proteasome assays
as §2, §3, §4, §5, §6, §7, §8, §9, §10, §11, §12, §13, §14, §15, §16, §17, §18, §19, §20, §21, §22, §23, §24, §25, §26, §27, §28, §29, §30, §31, §32, §33, §34, §35, §36, §37, §38

[3] = tested on: intracellular T. cruzi X10/7 A1 amastigotes
[4] = Kinetic aqueous solubility (UHPLC, PBS pH 7.4); assay type: physicochemical; conditions: phosphate buffered saline, UHPLC UV/MS
Description: This assay was conducted as previously described: […]
(§1) were prepared by adding a volume (5 µL) of the 10 mM solution to a volume (195 µL) of […]
format). Samples were then drawn through the filter using vacuum. The filtrate from the above […]
formic acid gradient elution. The UHPLC parameters are shown below:
Gradient program: Initial: 98% A, 2% B
Re-equilibration time: 0.6 min
Autosampler temperature: 25°C
Detector wavelength: 254 nm

[5] = Mouse microsomal intrinsic clearance; assay type: in vitro ADME; conditions: mouse liver microsomes, scaling 52.5 mg microsomal protein/g liver
Description: Mouse microsomal intrinsic clearance.
This assay was conducted as previously described:
J.; Reid, I. H.; Hill, A. P.;
as §1

[6] = T. cruzi Prot pIC50, mean of at least three independent replicates
[7] = Tc Prot pIC50, individual replicate
[8] = mean of at least three independent replicates

SMILES: O=C(Cn1ccnc1[N+](=O)[O-])NCc1ccccc1 [BNZ, benznidazole, reference compound]
relapses, days post washout (T. cruzi [1]): 31 days and 35 days
parasites relapsing on day (T. cruzi [1]; 8 days of treatment, 50-fold EC50): 21 days
cure (T. cruzi [2]; 100 mg/kg for 20 days, u.i.d): cured all mice
effect on parasite levels (T. cruzi [2]; dosed at 100 mg/kg): reduced parasite levels below detectable limits

SMILES: O=C(Nc1ccc(F)c(C(=O)NC2CC2)c1)c1ccc(=O)n(Cc2ccccc2)n1 [Compound 9, 1-Benzyl-N-(3-(cyclopropylcarbamoyl)-4-fluorophenyl)-6-oxo-1,6-dihydropyridazine-3-carboxamide]
chromatographic logD (ChromLogD): 4.2
IC50 (T. cruzi proteasome; [6]): 158 nM
IC50 (T. cruzi proteasome; [7]): 251 nM and 200 nM and 100 nM
Tc Prot Hill Slope (T. cruzi proteasome): 1.0 and 0.9
Tc Prot Max Response (%) (T. cruzi proteasome): 83% and 82%
Emax (T. cruzi proteasome): 71%
Hs Prot Max Response (%) (Human 20S proteasome; individual replicate): 8.53% and 11% and 6%
Hs Prot pIC50 (Human 20S proteasome; individual replicate): < 4
Hs Prot pIC50 (Human 20S proteasome; [8]): <4
Emax (Human 20S proteasome): 7%
EC50 [3]: 2000 nM
Emax [3]: 94% and 90% and 82% and 88% and 89%
EC50 (host VERO cells): > 50100 nM
Emax (host VERO cells): 29%
solubility at 24 h [4]: 218 µM (≈ 88.6 µg/mL)
Mouse CLi [5]: 6.7 mL/min/g

SMILES: O=C(NC1CC1)c1ccc(F)c(NC(=O)c2ccc(=O)n(Cc3ccccc3)n2)c1 [Compound 10, 1-Benzyl-N-(5-(cyclopropylcarbamoyl)-2-fluorophenyl)-6-oxo-1,6-dihydropyridazine-3-carboxamide]
chromatographic logD (ChromLogD): 4.1
IC50 (T. cruzi proteasome; [6]): 1580 nM
IC50 (T. cruzi proteasome; [7]): > 100000 nM
Tc Prot Hill Slope (T. cruzi proteasome): 1.2
Tc Prot Max Response (%) (T. cruzi proteasome): 35% and 20% and 57%
Hs Prot Max Response (%) (Human 20S proteasome; individual replicate): 17% and 3% and 2.27%
Hs Prot pIC50 (Human 20S proteasome; individual replicate): < 4
Hs Prot pIC50 (Human 20S proteasome; [8]): <4
EC50 [3]: > 50100 nM
EC50 (host VERO cells): > 50100 nM
solubility at 24 h [4]: 1.5 µM (≈ 0.61 µg/mL)
Mouse CLi [5]: 3.1 mL/min/g

SMILES: COc1ccc(Cn2nc(C(=O)Nc3ccc(F)c(C(=O)NC4CC4)c3)ccc2=O)cc1 [Compound 12, N-[3-(Cyclopropylcarbamoyl)-4-fluorophenyl]-1-[(4-methoxyphenyl)methyl]-6-oxo-pyridazine-3-carboxamide]
chromatographic logD (ChromLogD): 4.2
IC50 (T. cruzi proteasome; [6]): 31.6 nM
IC50 (T. cruzi proteasome; [7]): 39.8 nM and 25.1 nM
Tc Prot Hill Slope (T. cruzi proteasome): 0.95 and 0.9
Tc Prot Max Response (%) (T. cruzi proteasome): 80% and 85%
Emax (T. cruzi proteasome): 67%
Hs Prot Max Response (%) (Human 20S proteasome; individual replicate): 8% and 12% and 18%
Hs Prot pIC50 (Human 20S proteasome; individual replicate): < 4
Hs Prot pIC50 (Human 20S proteasome; [8]): <4
EC50 [3]: 398 nM and 316 nM and 501 nM
Emax [3]: 56% and 99% and 66%
solubility at 24 h [4]: 83 µM (≈ 36.2 µg/mL)
Mouse CLi [5]: 2.4 mL/min/g

SMILES: COc1ccc(Cn2nc(C(=O)Nc3ccc(F)c(C(=O)NC4CC4)c3)ccc2=O)cc1Cl [Compound 14, 1-[(3-Chloro-4-methoxy-phenyl)methyl]-N-[3-(cyclopropylcarbamoyl)-4-fluorophenyl]-6-oxo-pyridazine-3-carboxamide]
chromatographic logD (ChromLogD): 4.7
IC50 (T. cruzi proteasome; [6]): < 10 nM and 3.16 nM
IC50 (T. cruzi proteasome; [7]): 5.01 nM and 2 nM
Tc Prot Hill Slope (T. cruzi proteasome): 0.95 and 0.9
Tc Prot Max Response (%) (T. cruzi proteasome): 86%
Emax (T. cruzi proteasome): 80%
Hs Prot Max Response (%) (Human 20S proteasome; individual replicate): 17% and 49%
Hs Prot pIC50 (Human 20S proteasome; individual replicate): < 4
Hs Prot pIC50 (Human 20S proteasome; [8]): <4
EC50 [3]: 50.1 nM and 39.8 nM and 63.1 nM
Emax [3]: 92% and 94% and 90% and 93%
EC50 (host VERO cells): > 50100 nM
solubility at 24 h [4]: < 1 µM
Mouse CLi [5]: 1.6 mL/min/g

SMILES: COc1ccc(Cn2nc(C(=O)Nc3ccc(F)c(C(=O)NC4CC4)c3)ccc2=O)cc1C#N [Compound 16, 1-[(3-Cyano-4-methoxy-phenyl)methyl]-N-[3-(cyclopropylcarbamoyl)-4-fluorophenyl]-6-oxo-pyridazine-3-carboxamide]
chromatographic logD (ChromLogD): 4
IC50 (T. cruzi proteasome; [6]): 10 nM
IC50 (T. cruzi proteasome; [7]): 12.6 nM
Tc Prot Hill Slope (T. cruzi proteasome): 1.2 and 1.1
Tc Prot Max Response (%) (T. cruzi proteasome): 62%
Emax (T. cruzi proteasome): 72%
Hs Prot Max Response (%) (Human 20S proteasome; individual replicate): 5%
Hs Prot pIC50 (Human 20S proteasome; individual replicate): < 4
Hs Prot pIC50 (Human 20S proteasome; [8]): <4
Emax (Human 20S proteasome): 4%
EC50 [3]: 158 nM and 200 nM and 126 nM and 100 nM
Emax [3]: 91% and 90% and 102% and 87% and 92%
solubility at 24 h [4]: < 1 µM
Mouse CLi [5]: 0.7 mL/min/g

SMILES: O=C(Nc1ccc(F)c(C(=O)NC2CC2)c1)c1ccc(=O)n(Cc2ccc(Cl)c(F)c2)n1 [Compound 17, 1-[(4-Chloro-3-fluorophenyl)methyl]-N-[3-(cyclopropylcarbamoyl)-4-fluorophenyl]-6-oxo-pyridazine-3-carboxamide]
chromatographic logD (ChromLogD): 5.1
IC50 (T. cruzi proteasome; [6]): 25.1 nM
IC50 (T. cruzi proteasome; [7]): 39.8 nM and 20 nM
Tc Prot Hill Slope (T. cruzi proteasome): 0.9 and 1.0
Tc Prot Max Response (%) (T. cruzi proteasome): 87% and 86%
Emax (T. cruzi proteasome): 80%
Hs Prot Max Response (%) (Human 20S proteasome; individual replicate): 21% and 22% and 27% and 11%
Hs Prot pIC50 (Human 20S proteasome; individual replicate): < 4
Hs Prot pIC50 (Human 20S proteasome; [8]): <4
EC50 [3]: 200 nM
Emax [3]: 90% and 93%
EC50 (host VERO cells): > 50100 nM
solubility at 24 h [4]: 21 µM (≈ 9.64 µg/mL)
Mouse CLi [5]: 4.8 mL/min/g

SMILES: COc1ncc(Cn2nc(C(=O)Nc3ccc(F)c(C(=O)NC4CC4)c3)ccc2=O)cc1F [Compound 18, N-(3-(Cyclopropylcarbamoyl)-4-fluorophenyl)-1-((5-fluoro-6-methoxypyridin-3-yl)methyl)-6-oxo-1,6-dihydropyridazine-3-carboxamide]
chromatographic logD (ChromLogD): 5.6
IC50 (T. cruzi proteasome; [6]): 2510 nM
IC50 (T. cruzi proteasome; [7]): 5010 nM and 1580 nM
Tc Prot Hill Slope (T. cruzi proteasome): 1.2 and 1.1
Tc Prot Max Response (%) (T. cruzi proteasome): 80%
Emax (T. cruzi proteasome): 75%
Hs Prot Max Response (%) (Human 20S proteasome; individual replicate): 13%
Hs Prot pIC50 (Human 20S proteasome; individual replicate): < 4
Hs Prot pIC50 (Human 20S proteasome; [8]): <4
Emax (Human 20S proteasome): 10%
EC50 [3]: 50100 nM
Emax [3]: 53% and 54% and 55% and 67% and 52%
EC50 (host VERO cells): > 50100 nM
solubility at 24 h [4]: < 1 µM
Mouse CLi [5]: 3.5 mL/min/g

SMILES: COc1ccc(Cn2nc(C(=O)Nc3ccc(F)c(C(=O)NCCN4CCOCC4)c3)ccc2=O)cc1 [Compound 21, N-[4-Fluoro-3-(2-morpholinoethylcarbamoyl)phenyl]-1-[(4-methoxyphenyl)methyl]-6-oxo-pyridazine-3-carboxamide]
chromatographic logD (ChromLogD): 3.7
IC50 (T. cruzi proteasome; [6]): 126 nM
IC50 (T. cruzi proteasome; [7]): 126 nM
Tc Prot Hill Slope (T. cruzi proteasome): 1.0 and 0.9
Tc Prot Max Response (%) (T. cruzi proteasome): 72%
Emax (T. cruzi proteasome): 80%
Hs Prot Max Response (%) (Human 20S proteasome; individual replicate): 12%
Hs Prot pIC50 (Human 20S proteasome; individual replicate): < 4
Hs Prot pIC50 (Human 20S proteasome; [8]): <4
Emax (Human 20S proteasome): 9%
EC50 [3]: 1580 nM and 1000 nM
Emax [3]: 95% and 94% and 98% and 96% and 92%
EC50 (host VERO cells): > 50100 nM
solubility at 24 h [4]: 200 µM (≈ 102 µg/mL)
Mouse CLi [5]: 3.6 mL/min/g

IC50 (T. cruzi proteasome; [7]): 63.1 nM and 31.6 nM
Tc Prot Hill Slope (T. cruzi proteasome): 1.0 and 1.1
Tc Prot Max Response (%) (T. cruzi proteasome): 82%
Emax (T. cruzi proteasome): 73%
Hs Prot Max Response (%) (Human 20S proteasome; individual replicate): 21% and 3% and 0%
Hs Prot pIC50 (Human 20S proteasome; individual replicate): < 4
Hs Prot pIC50 (Human 20S proteasome; [8]): <4
EC50 [3]: 794 nM and 631 nM and 501 nM and 1000 nM
SMILES: CNC(=O)c1cc(NC(=O)c2ccc(=O)n(Cc3ccc(OC)cc3)n2)ccc1F [Compound 26, N-(4-Fluoro-3-(methylcarbamoyl)phenyl)-1-(4-methoxybenzyl)-6-oxo-1,6-dihydropyridazine-3-carboxamide]
relapses, days post washout (T. cruzi [1]): 35 days and 42 days
Emax [3]: 92% and 94% and 95% and 87% and 86% and 98% and 90%
EC50 (host VERO cells): > 50100 nM
Emax (host VERO cells): 20%
cure (T. cruzi [2]; 50 mg/kg b.i.d for 20 days): not curative
